Columns and labels:
[1] = system: stress urinary incontinence; conditions: clinical study; cited from earlier work
[2] = system: external urethral sphincter of extracted rat urethra; experiment: External urethral sphincter contractile response induced by transmural electrical stimulation using extracted rat urethra; conditions: extracted rat urethra strips, 10 or 30 μmol/L, 15 minutes after addition, transmural electrical stimulation 20 V, 20 Hz; FIG. 1
[3] = system: rat diaphragm; conditions: in vitro, transmural electrical stimulation; cited from earlier work
[4] = system: rat extensor digitorum longus muscle; conditions: rat extensor digitorum longus muscle including a fast-muscle component; cited from earlier work
[5] = system: rat extensor digitorum longus muscle; conditions: in vivo, electrical stimulation of the rat fibular nerve; cited from earlier work
[6] = system: SD female rats; experiment: Reaction increasing urethra internal pressure induced by electrical stimulation of rat pudendal nerve; type: in vivo; conditions: anesthetized SD female rats, 3 or 10 mg/kg intravenously, about three minutes after administration; FIG. 2
Description: Test to Evaluate Reinforcing Action of Compound A on Reaction Increasing Urethra Internal Pressure Induced by Electrical Stimulation of Rat Pudendal Nerve
SD female rats (Japan SLC, Inc.) having a body weight of 200-350 g were anesthetized with urethane (1.2 g/kg, sc; Sigma-Aldrich), and a catheter (PE-50; Becton Dickinson) was lodged in the jugular vein for administering the test substance. Laparotomies were performed, and the dome of the bladder was cut open to allow discharge of the urine in the bladder. A microchip pressure transducer catheter (3.5Fr; Millar Instruments) was inserted from the external urethral orifice toward the bladder to measure the urethra internal pressure. The rats were arranged prone, the back was cut open, and several left and right pudendal nerves were isolated and held in place with exciting electrodes. […] The average of the reactions increasing urethra internal pressure by electrical stimulation three times before administering the test substance was calculated as the level before administering the test substance, and the percentage of reaction increasing urethra internal pressure by electrical stimulation about three minutes after administering the test substance to the value before administering the test substance was calculated for each of the treatment groups.

[7] = system: rat diaphragm myofibrils; conditions: cited from earlier work
[8] = preclinical study; cited from earlier work

Structure (SMILES): CCOc1ccccc1O[C@@H](c1ccccc1)[C@@H]1CNCCO1 [(S,S)-reboxetine]
- efficacy on stress urinary incontinence [1]: effective for stress urinary incontinence
- urethral resistance [1]: increased urethral resistance

Structure (SMILES): NC(=O)c1ccn(-c2cnc(NC[C@]3(c4ncccc4F)C[C@H](F)C3)nc2)c1 [Compound A, 1-[2-({[trans-3-fluoro-1-(3-fluoropyridin-2-yl)cyclobutyl]methyl}amino)pyrimidin-5-yl]-1H-pyrrole-3-carboxamide]
- contractile response of the external urethral sphincter after adding test substance relative to before adding [2]: reinforced contractile response of the external urethral sphincter
- contractile response of rat diaphragm [3]: reinforcing the contractile response of a rat diaphragm
- shift of concentration-response curve of intracellular calcium ions concentration and muscle tension [4]: shift the concentration-response curve of intracellular calcium ions concentration and muscle tension to the left
- extensor digitorum longus muscle contractile response [5]: reinforcing extensor digitorum longus muscle contractile response
- reaction increasing urethra internal pressure after administration relative to before administration [6]: reinforced a reaction increasing urethra internal pressure
- shift of concentration-response curve of intracellular calcium ions concentration and muscle tension [7]: shift the concentration-response curve of intracellular calcium ions concentration and muscle tension to the left

Structure (SMILES): CNCC[C@H](Oc1cccc2ccccc12)c1cccs1 [duloxetine]
- adverse drug reactions [1]: undesirable adverse drug reactions such as suicide attempts were reported
- efficacy on stress urinary incontinence [1]: effective on stress urinary incontinence

Structure (SMILES): CNCCC(Oc1ccccc1OC)c1ccccc1 (stereo not drawn) [nisoxetine]
- incontinence induced by sneezing [8]: improved incontinence induced by sneezing
- urethra internal pressure [8]: increased urethra internal pressure

— patent US9987279B2, “Pharmaceutical composition for prevention and/or treatment of urinary incontinence” (ASTELLAS PHARMA INC., priority 2014, dated 2018)
